According to a melting point compilation (Tetko et al.):

| Structure (SMILES) | melting point |
| --- | --- |
| CC(C)(C)OC(=O)N1CCN2C(=O)C(=O)NCC2C1 (configuration not stated) | 222 to 224 °C |
| COC(=O)C(=O)NN | 115 to 117 °C |
| CC(C)(Br)C(=O)Nc1ccccc1 | 82 to 84 °C |
| Cc1cc(=O)[nH]c(-c2cccc(O)c2)n1 | 213 to 215 °C |
| O=C(O)Cc1csc(N2CCCNC2=O)n1 | 184 to 186 °C |
| Cc1ccc(C)c(S(=O)(=O)Nc2cccc(C(=O)O)c2)c1 | 217 to 219 °C |
| NCC(=O)N1CCN(c2ccccc2)CC1 | 69 to 71 °C |
| COc1nnc(Cl)c2ccccc12 | 99 to 101 °C |
| COc1cc(C)c(N)cc1OC | 39 to 41 °C |
| O=C(Nc1ccccc1C(=O)O)c1ccc(Oc2ccccc2)cc1 | 189 to 191 °C |
| O=C(Cl)c1cc([N+](=O)[O-])ccc1Br | 62 to 64 °C |
| Cc1cc(Br)cc(C)c1N1CCCC1=O | 103 to 105 °C |
| Cc1csc2nc(CCl)cc(=O)n12 | 100 to 104 °C |
| Cc1ccccc1NC(=O)CCl | 75 to 77 °C |
| Cc1c(C(=O)O)cnn1C1CCOCC1 | 207 to 209 °C |
| O=C(NCc1ccc2c(c1)OCO2)C(Cl)c1ccccc1 (configuration not stated) | 104 to 106 °C |
| CC(C)(C)Nc1ccc(C(N)=NO)nc1 | 139 to 141 °C |
| Nc1nnc(-c2cccc(Br)c2)o1 | 209 to 211 °C |
| COC(=O)C(O)c1cccc(Cl)c1 (configuration not stated) | 80 to 82 °C |
| COC(=O)c1ccc2[nH]ncc2c1 | 193 to 195 °C |
| O=Cc1cc2ccccc2nc1N1CCCCC1 | 118 to 120 °C |
| O=C(CCl)NCCc1nc2ccccc2s1 | 90 to 92 °C |
| Cn1cc([N+](=O)[O-])cn1 | 91 to 93 °C |
| CC(Cl)C(=O)Nc1ccc([N+](=O)[O-])cc1 (configuration not stated) | 138 to 140 °C |

| Structure (SMILES) | melting point |
| --- | --- |
| CCn1c(S)nnc1CCC(N)=O | 208 to 210 °C |
| CCc1ccc(-c2nn[nH]n2)cc1 | 237 to 239 °C |
| COc1ccc(CC#N)cn1 | 49 to 51 °C |
| O=C(O)c1ccc(CS)c(F)c1 | 136 to 138 °C |
| COCCNc1nc(Cl)nc(Cl)n1 | 71 to 73 °C |
| Fc1ccccc1-c1nnc(S)[nH]1 | 154 to 156 °C |
| COC(=O)c1cc(S(N)(=O)=O)ccc1F | 97 to 99 °C |
| CN(c1ccc(O)cc1)S(C)(=O)=O | 129 to 131 °C |
| COc1ncc(F)c(O)n1 | 195 to 197 °C |
| Cc1cccc(-c2nc(CC(=O)O)cs2)c1 | 110 to 112 °C |
| O=C(O)CSc1nnc(-c2ccc(Cl)cc2Cl)[nH]1 | 161 to 163 °C |
| CC(C)(C)C1CNC(=O)C1 (configuration not stated) | 130 to 132 °C |
| CCCN(CC)C(=O)c1ccc(C(=O)O)cc1 | 121 to 123 °C |
| Cc1nc(-c2cccc(N)c2)n[nH]1 | 56 to 58 °C |
| Cc1ccc(C)c(NC(N)=S)c1 | 140 to 142 °C |
| Cc1ccccc1-c1nnc(S)n1N | 199 to 201 °C |
| O=C1Nc2ccc(S(=O)(=O)Cl)c3cccc1c23 | 197 to 199 °C |
| O=C(O)c1ccc(Cl)c(NC(=O)c2cccs2)c1 | 166 to 168 °C |
| Nc1cccc(OCc2ccc(F)cc2)c1 | 87 to 89 °C |
| Cc1cc(=O)nc2sc(N3CCNCC3)nn12 | 234 to 236 °C |
| Nc1nncc(-c2ccc(F)cc2)n1 | 248 to 250 °C |
| N#CCS(=O)(=O)c1ccc(C(=O)O)cc1 | 236 to 238 °C |
| Cc1[nH]c(-c2ncccn2)nc(=O)c1CC(=O)O | 194 to 196 °C |
| O=C(O)CCn1cnc2ccccc21 | 106 to 108 °C |

| Structure (SMILES) | melting point |
| --- | --- |
| Cc1c(NC(=S)Nc2c(C)n(C)n(-c3ccccc3)c2=O)c(=O)n(-c2ccccc2)n1C | 93 to 95 °C |
| CN1CCc2cc(C=O)ccc21 | 38 to 40 °C |
| COc1cc(N)ccc1NC(C)=O | 121 to 123 °C |
| O=C(Cn1cnnn1)N1CCNCC1 | 143 to 145 °C |
| O=C(O)c1cc2c(OC(F)(F)F)cccc2[nH]1 | 189 to 191 °C |
| CC(O)c1ccc(NC(=O)c2ccccc2)cc1 (configuration not stated) | 164 to 166 °C |
| CCOc1ccc(OCCOc2ccc(C=CC(=O)O)cc2OCC)cc1 | 182 to 184 °C |
| O=C(O)C1CCCSC1 (configuration not stated) | 76 to 78 °C |
| CC(C)(C)OC(=O)NCC1CCCCC12NC(=O)NC2=O (configuration not stated) | 229 to 231 °C |
| COc1ccc(Sc2ccc(N)cc2)cc1 | 93 to 95 °C |
| CCOc1ccccc1C=NO | 64 to 66 °C |
| Cc1cccc(OC(C)C(=O)NN)c1C (configuration not stated) | 140 to 144 °C |
| NCc1cccc(S(=O)(=O)N2CCCCC2)c1 | 67 to 69 °C |
| Nc1cnn(-c2cnc3ccccc3n2)c1 | 169 to 171 °C |
| Oc1nnc(-c2ccccc2)c(-c2ccccc2)n1 | 222 to 224 °C |
| CN(C)C(=O)c1cc(S(=O)(=O)Cl)cn1C | 105 to 107 °C |
| CS(=O)(=O)NCC(=O)c1ccccc1 | 113 to 115 °C |
| Nc1cc(NC(=O)c2ccccc2I)ccc1F | 202 to 204 °C |
| O=C1CCCN1CO | 79 to 81 °C |
| Cc1cc(C(=O)O)c(O)c(S(N)(=O)=O)c1 | 218 to 220 °C |
| Oc1ccc2nccnc2c1 | 225 to 227 °C |
| O=C(O)CSc1nnc(NC2CCCCC2)s1 | 157 to 159 °C |
| O=C(CCl)c1ccc(N2CCOC2=O)cc1 | 167 to 169 °C |
| NCc1ccc(-c2ccn[nH]2)cc1 | 141 to 143 °C |
